“And” between values parts separate entries of the source, which are not always exact repeats. Identical values can stand only once. Numbers after ± are expanded uncertainties.
Details: Liquid, Closed cell (Static) method

FC(F)CC(F)(F)F [1,1,1,3,3-pentafluoropropane]
Details	vapor or sublimation pressure
293.15 K	122.7 ± 1.1 kPa
295.08 K	132.2 ± 1 kPa
295.57 K	134.7 ± 1 kPa
296.57 K	139.9 ± 1 kPa
297.57 K	145.2 ± 1 kPa
298.57 K	150.6 ± 1 kPa and 150.7 ± 1 kPa
298.58 K	150.7 ± 1 kPa
299.61 K	156.5 ± 1 kPa
300.61 K	162.4 ± 1 kPa
301.62 K	168.4 ± 1 kPa
302.63 K	174.6 ± 1 kPa
303.15 K	177.9 ± 1.2 kPa
303.64 K	181 ± 1.1 kPa
304.64 K	187.6 ± 1.1 kPa
305.65 K	194.3 ± 1.1 kPa
306.66 K	201.2 ± 1.1 kPa
307.67 K	208.3 ± 1.1 kPa
308.68 K	215.7 ± 1.1 kPa
309.7 K	223.3 ± 1.1 kPa
310.72 K	231.1 ± 1.1 kPa
311.74 K	239.1 ± 1.1 kPa
313.15 K	250.3 ± 1.3 kPa
313.71 K	255.2 ± 1.1 kPa
315.74 K	272.6 ± 1.1 kPa
317.76 K	290.8 ± 1.1 kPa
318.78 K	300.3 ± 1.1 kPa
319.77 K	309.9 ± 1.1 kPa
321.71 K	329.1 ± 1.2 kPa
323.15 K	344 ± 1.6 kPa
323.73 K	349.9 ± 1.2 kPa
325.71 K	371.6 ± 1.2 kPa
327.68 K	394 ± 1.2 kPa
329.67 K	417.9 ± 1.2 kPa
330.68 K	430.4 ± 1.3 kPa
331.7 K	443.4 ± 1.3 kPa
333.71 K	469.6 ± 1.3 kPa
335.73 K	497.1 ± 1.3 kPa
337.74 K	525.9 ± 1.4 kPa
338.75 K	540.8 ± 1.4 kPa
339.77 K	556.1 ± 1.4 kPa
341.82 K	587.9 ± 1.4 kPa
343.82 K	620.4 ± 1.5 kPa
343.88 K	621 ± 2.4 kPa
345.87 K	654.6 ± 1.5 kPa
347.86 K	689.5 ± 1.6 kPa
348.87 K	707.6 ± 1.6 kPa and 707.7 ± 1.6 kPa
349.86 K	725.9 ± 1.6 kPa
350.86 K	744.6 ± 1.6 kPa
351.87 K	763.8 ± 1.7 kPa
352.87 K	783.3 ± 1.7 kPa

CC(C)C [2-methylpropane]
Details	vapor or sublimation pressure [kPa]
293.15 K	302.2 ± 1.3
293.58 K	306.7 ± 1.1
295.58 K	325.6 ± 1.1
297.58 K	345.2 ± 1.1
299.59 K	365.9 ± 1.1
301.61 K	387.6 ± 1.2
303.15 K	404.7 ± 1.5
303.62 K	410.2 ± 1.2
305.63 K	433.9 ± 1.2
307.64 K	458.6 ± 1.2
309.65 K	484.2 ± 1.2
311.66 K	510.9 ± 1.2
313.15 K	531.6 ± 1.8
313.69 K	538.7 ± 1.3
315.7 K	567.9 ± 1.3
317.73 K	598.1 ± 1.3
319.72 K	629 ± 1.4
321.75 K	661.7 ± 1.4
323.15 K	685.6 ± 2.2
323.82 K	696.1 ± 1.4
325.77 K	730.9 ± 1.5
327.73 K	765.3 ± 1.5
329.74 K	802.7 ± 1.5
331.72 K	840.8 ± 1.6
333.71 K	880.5 ± 1.6
335.74 K	922.5 ± 1.7
337.79 K	966.2 ± 1.7
339.85 K	1011.5 ± 1.8
341.75 K	1054.5 ± 1.8
343.78 K	1102.5 ± 1.9
343.88 K	1105.1 ± 3.5
345.86 K	1153.1 ± 1.9
347.86 K	1204.4 ± 2
349.9 K	1256.3 ± 2.1
351.91 K	1309.8 ± 2.1
353.91 K	1365.1 ± 2.2
